# Experiments:
# green foxtail = experiment: Test E green foxtail; assay type: in vivo, Setaria viridis; conditions: Preemergence
# purple nutsedge = experiment: Test B pre/postemergence purple nutsedge; assay type: in vivo, Cyperus rotundus; conditions: for Nutsedge plant response rating (0 to 10 scale): 0 is no effect
# Method in brief: (§1)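 Test chemicals in a non-phytotoxic solvent mixture with surfactant were sprayed preemergence onto planted seeds and postemergence onto plants 2 to 18 cm tall (1- to 4-leaf stage). After twelve to sixteen days in a greenhouse, injury was visually rated against untreated controls from 0 (no effect) to 10 (complete control).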
# winter wheat [1] = experiment: Test E winter wheat; assay type: in vivo, Triticum aestivum; conditions: Preemergence
# blackgrass [2] = experiment: Test E blackgrass; assay type: in vivo, Alopecurus myosuroides; conditions: Preemergence
# Italian ryegrass = experiment: Test E Italian ryegrass; assay type: in vivo, Lolium multiflorum; conditions: Preemergence
# winter wheat [3] = experiment: Test E winter wheat; assay type: in vivo, Triticum aestivum; conditions: Postemergence
# Method in brief: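 For postemergence, plants at the 1- to 4-leaf stage, in a 60:40 mix of sandy loam and potting mix, treated with compound formulated in a surfactant-containing non-phytotoxic solvent. Visual assessment versus untreated controls followed roughly 21–28 days in the greenhouse.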
# giant foxtail = experiment: Test B pre/postemergence giant foxtail; assay type: in vivo, Setaria faberii; conditions: for Giant foxtail plant response rating (0 to 10 scale): 0 is no effect
# Method in brief: as §1
# wheat = experiment: Test B pre/postemergence wheat; assay type: in vivo, Triticum aestivum; conditions: for Wheat plant response rating (0 to 10 scale): 0 is no effect
# Method in brief: as §1
# winter barley = experiment: Test E winter barley; assay type: in vivo, Hordeum vulgare; conditions: Preemergence
# wild oat = experiment: Test E wild oat; assay type: in vivo, Avena fatua; conditions: Preemergence; for Wild oat plant response rating (0 to 100 scale): Rate 250 g/ha; for Plant response rating, Wild oat: 0 to 100 scale where 0 is no effect and 100 is complete control
# blackgrass [4] = experiment: Test B pre/postemergence blackgrass; assay type: in vivo, Alopecurus myosuroides; conditions: for Blackgrass plant response rating (0 to 10 scale): 0 is no effect
# Method in brief: as §1
# [5] = Rate 500 g/ha, 0 to 100 scale where 0 is no effect and 100 is complete control
# [6] = Rate 1000 g/ha, 0 to 100 scale where 0 is no effect and 100 is complete control
# [7] = Postemergence, Rate 125 g/ha, scale of 0 to 10 where 0 is no effect and 10 is complete control
# [8] = Preemergence, Rate 62 g/ha, scale of 0 to 10 where 0 is no effect and 10 is complete control
# [9] = Preemergence, Rate 125 g/ha, 10 is complete control
# [10] = Rate 62 g/ha, Postemergence, scale of 0 to 10 where 0 is no effect and 10 is complete control
# [11] = Rate 250 g/ha, Postemergence, scale 0 to 10, 0 is no effect, 10 is complete control
# [12] = Rate 500 g/ha, Postemergence, scale 0 to 10
# [13] = Rate 1000 g/ha, 0 to 100 scale, 0 is no effect and 100 is complete control
# [14] = Preemergence, Rate 250 g/ha, scale 0 to 10, 0 is no effect, 10 is complete control
# [15] = Preemergence, Rate 500 g/ha, scale 0 to 10 (0 no effect, 10 complete control)
# [16] = Preemergence, Rate 62 g/ha, scale 0 to 10 (0 no effect, 10 complete control)
# [17] = Rate 500 g/ha, Postemergence, scale 0 to 10, 0 no effect, 10 complete control
smiles,measurement,setting,value
CC(C)N(C(=O)n1oc(=O)n([C@@H](C)c2ccccc2)c1=O)c1ccc(Cl)cc1 [Compound 174],Green foxtail plant response rating (0 to 100 scale),green foxtail; Rate 250 g/ha,30
same,"Plant response rating, Green foxtail",green foxtail; [5],50
same,"Plant response rating, Green foxtail",green foxtail; [6],85
same,Nutsedge plant response rating,purple nutsedge; [7],0
same,Nutsedge plant response rating,purple nutsedge; [8],0
same,Nutsedge plant response rating (0 to 10 scale),purple nutsedge; [9],0
same,Nutsedge plant response rating,purple nutsedge; [10],0
same,"Plant response rating, Nutsedge",purple nutsedge; [11],0
same,Nutsedge plant response rating,purple nutsedge; [12],0
same,Wheat (winter) plant response rating (0 to 100 scale),winter wheat [1]; Rate 250 g/ha,60
same,"Plant response rating, Wheat (winter)",winter wheat [1]; [5],50
same,"Plant response rating, Wheat (winter)",winter wheat [1]; [6],40
same,Blackgrass plant response rating (0 to 100 scale),blackgrass [2]; Rate 250 g/ha,30
same,"Plant response rating, Blackgrass",blackgrass [2]; [5],50
same,"Plant response rating, Blackgrass",blackgrass [2]; [6],55
same,I. Ryegrass plant response rating (0 to 100 scale),Italian ryegrass; Rate 250 g/ha,0
same,"Plant response rating, I. Ryegrass",Italian ryegrass; [5],20
same,"Plant response rating, I. Ryegrass",Italian ryegrass; [6],40
same,"Plant response rating, Wheat (winter)",winter wheat [3]; [13],50
same,"Plant response rating, Wheat (winter)","winter wheat [3]; Rate 500 g/ha, 0 to 100 scale, 0 is no effect, 100 is complete control",40
same,Giant foxtail plant response rating,giant foxtail; [7],0
same,Giant foxtail plant response rating,giant foxtail; [8],8
same,Giant foxtail plant response rating (0 to 10 scale),giant foxtail; [9],9
same,Giant foxtail plant response rating,giant foxtail; [14],10
same,Giant foxtail plant response rating,giant foxtail; [15],10
same,Giant foxtail plant response rating,giant foxtail; [10],0
same,"Plant response rating, Giant foxtail",giant foxtail; [11],0
same,Giant foxtail plant response rating,giant foxtail; [12],1
same,Wheat plant response rating,wheat; [8],0
same,Wheat plant response rating (0 to 10 scale),wheat; [9],0
same,Wheat plant response rating,wheat; [14],0
same,Wheat plant response rating,wheat; [15],0
same,"Plant response rating, Wheat",wheat; [11],0
same,Wheat plant response rating,wheat; [12],0
same,Barley (winter) plant response rating (0 to 100 scale),winter barley; Rate 250 g/ha,0
same,"Plant response rating, Barley (winter)",winter barley; [5],0
same,"Plant response rating, Barley (winter)",winter barley; [6],10
same,Wild oat plant response rating (0 to 100 scale),wild oat,50
same,"Plant response rating, Wild oat",wild oat; Rate 500 g/ha,40
same,"Plant response rating, Wild oat",wild oat; Rate 1000 g/ha,50
same,Blackgrass plant response rating,blackgrass [4]; [7],0
same,Blackgrass plant response rating,blackgrass [4]; [8],0
same,Blackgrass plant response rating (0 to 10 scale),blackgrass [4]; [9],2
same,Blackgrass plant response rating,blackgrass [4]; [14],2
same,Blackgrass plant response rating,blackgrass [4]; [15],2
same,Blackgrass plant response rating,blackgrass [4]; [10],0
same,"Plant response rating, Blackgrass",blackgrass [4]; [11],0
same,Blackgrass plant response rating,blackgrass [4]; [12],3
CC(C)N(C(=O)n1oc(=O)n(-c2cnn(C)c2)c1=O)c1ccccc1 [Compound 123],"Plant response rating, Green foxtail","green foxtail; Rate 250 g/ha, 0 to 100 scale",20
same,"Plant response rating, Green foxtail",green foxtail; [6],40
same,Nutsedge plant response rating,purple nutsedge; [7],0
same,Nutsedge plant response rating,purple nutsedge; [16],0
same,Nutsedge plant response rating (0 to 10 scale),purple nutsedge; [9],0
same,Nutsedge plant response rating,purple nutsedge; [14],0
same,Nutsedge plant response rating,purple nutsedge; [15],0
same,Nutsedge plant response rating,purple nutsedge; [10],0
same,"Plant response rating, Nutsedge",purple nutsedge; [11],0
same,Nutsedge plant response rating,purple nutsedge; [17],0
same,"Plant response rating, Wheat (winter)","winter wheat [1]; Rate 250 g/ha, 0 to 100 scale",10
same,"Plant response rating, Wheat (winter)",winter wheat [1]; [6],20
same,"Plant response rating, Blackgrass","blackgrass [2]; Rate 250 g/ha, 0 to 100 scale",30
same,"Plant response rating, Blackgrass",blackgrass [2]; [6],65
same,"Plant response rating, I. Ryegrass","Italian ryegrass; Rate 250 g/ha, 0 to 100 scale",40
same,"Plant response rating, I. Ryegrass",Italian ryegrass; [6],50
same,"Plant response rating, Wheat (winter)","winter wheat [3]; Rate 250 g/ha, 0 to 100 scale (0 no effect, 100 complete control)",55
same,"Plant response rating, Wheat (winter)",winter wheat [3]; [13],65
same,Giant foxtail plant response rating,giant foxtail; [7],5
same,Giant foxtail plant response rating,giant foxtail; [16],7
same,Giant foxtail plant response rating (0 to 10 scale),giant foxtail; [9],9
same,Giant foxtail plant response rating,giant foxtail; [14],9
same,Giant foxtail plant response rating,giant foxtail; [15],10
same,Giant foxtail plant response rating,giant foxtail; [10],3
same,"Plant response rating, Giant foxtail",giant foxtail; [11],8
same,Giant foxtail plant response rating,giant foxtail; [17],9
same,Wheat plant response rating,wheat; [7],1
same,Wheat plant response rating,wheat; [16],0
same,Wheat plant response rating (0 to 10 scale),wheat; [9],0
same,Wheat plant response rating,wheat; [14],5
same,Wheat plant response rating,wheat; [15],7
same,Wheat plant response rating,wheat; [10],0
same,"Plant response rating, Wheat",wheat; [11],1
same,Wheat plant response rating,wheat; [17],4
same,"Plant response rating, Barley (winter)","winter barley; Rate 250 g/ha, 0 to 100 scale",30
same,"Plant response rating, Barley (winter)",winter barley; [6],50
same,"Plant response rating, Wild oat",wild oat; Rate 1000 g/ha,55
same,Blackgrass plant response rating,blackgrass [4]; [7],6
same,Blackgrass plant response rating,blackgrass [4]; [16],0
same,Blackgrass plant response rating (0 to 10 scale),blackgrass [4]; [9],0
same,Blackgrass plant response rating,blackgrass [4]; [14],4
same,Blackgrass plant response rating,blackgrass [4]; [15],7
same,Blackgrass plant response rating,blackgrass [4]; [10],2
same,"Plant response rating, Blackgrass",blackgrass [4]; [11],6
same,Blackgrass plant response rating,blackgrass [4]; [17],7
CC1CCCCC1n1c(=O)on(C(=O)N(c2ccccc2)C(C)C)c1=O (stereo not drawn) [Compound 162],Green foxtail plant response rating (0 to 100 scale),green foxtail; Rate 250 g/ha,60
same,"Plant response rating, Green foxtail",green foxtail; [5],65
same,"Plant response rating, Green foxtail",green foxtail; [6],85
same,Nutsedge plant response rating,purple nutsedge; [7],0
same,Nutsedge plant response rating,purple nutsedge; [8],0
same,Nutsedge plant response rating (0 to 10 scale),purple nutsedge; [9],0
same,Nutsedge plant response rating,purple nutsedge; [14],0
same,Nutsedge plant response rating,purple nutsedge; [15],0
same,Nutsedge plant response rating,purple nutsedge; [10],0
same,"Plant response rating, Nutsedge",purple nutsedge; [11],0
same,Nutsedge plant response rating,purple nutsedge; [12],2
same,Wheat (winter) plant response rating (0 to 100 scale),winter wheat [1]; Rate 250 g/ha,30
same,"Plant response rating, Wheat (winter)",winter wheat [1]; [5],15
same,"Plant response rating, Wheat (winter)",winter wheat [1]; [6],40
same,Blackgrass plant response rating (0 to 100 scale),blackgrass [2]; Rate 250 g/ha,55
same,"Plant response rating, Blackgrass",blackgrass [2]; [5],60
same,"Plant response rating, Blackgrass",blackgrass [2]; [6],55
same,I. Ryegrass plant response rating (0 to 100 scale),Italian ryegrass; Rate 250 g/ha,50
same,"Plant response rating, I. Ryegrass",Italian ryegrass; [5],65
same,"Plant response rating, I. Ryegrass",Italian ryegrass; [6],70
same,"Plant response rating, Wheat (winter)",winter wheat [3]; [13],50
same,"Plant response rating, Wheat (winter)","winter wheat [3]; Rate 500 g/ha, 0 to 100 scale, 0 no effect, 100 complete control",40
same,Wheat (winter) plant response rating,"winter wheat [3]; Rate 250 g/ha, 0 to 100 scale where 0 is no effect and 100 is complete control",30
same,Giant foxtail plant response rating,giant foxtail; [7],2
same,Giant foxtail plant response rating,giant foxtail; [8],7
same,Giant foxtail plant response rating (0 to 10 scale),giant foxtail; [9],7
same,Giant foxtail plant response rating,giant foxtail; [14],9
same,Giant foxtail plant response rating,giant foxtail; [15],9
same,Giant foxtail plant response rating,giant foxtail; [10],0
same,"Plant response rating, Giant foxtail",giant foxtail; [11],2
same,Giant foxtail plant response rating,giant foxtail; [12],3
same,Wheat plant response rating,wheat; [8],0
same,Wheat plant response rating (0 to 10 scale),wheat; [9],0
same,Wheat plant response rating,wheat; [14],0
same,Wheat plant response rating,wheat; [15],0
same,"Plant response rating, Wheat",wheat; [11],0
same,Wheat plant response rating,wheat; [12],0
same,Barley (winter) plant response rating (0 to 100 scale),winter barley; Rate 250 g/ha,30
same,"Plant response rating, Barley (winter)",winter barley; [5],30
same,"Plant response rating, Barley (winter)",winter barley; [6],40
same,Wild oat plant response rating (0 to 100 scale),wild oat,50
same,"Plant response rating, Wild oat",wild oat; Rate 500 g/ha,50
same,"Plant response rating, Wild oat",wild oat; Rate 1000 g/ha,60
same,Blackgrass plant response rating,blackgrass [4]; [7],0
same,Blackgrass plant response rating,blackgrass [4]; [8],0
same,Blackgrass plant response rating (0 to 10 scale),blackgrass [4]; [9],2
same,Blackgrass plant response rating,blackgrass [4]; [14],2
same,Blackgrass plant response rating,blackgrass [4]; [15],3
same,Blackgrass plant response rating,blackgrass [4]; [10],0
same,"Plant response rating, Blackgrass",blackgrass [4]; [11],0
same,Blackgrass plant response rating,blackgrass [4]; [12],6

# Reference: patent publication US6737383B1, “Herbicidal oxadiazolidines” (priority 1999, dated 2004)
